According to US10526326B2, “Crystalline form and acetic acid adducts of palbociclib” (RATIOPHARM GMBH, priority 2015, dated 2020):
In brackets after ≈: the same amount, converted by molar mass. Counter-ions that a name gives are not always drawn. Values belong to the compound of their own block, whether it stands above or below them.

Legend:
[1] = Dynamic vapor sorption measurement; assay type: physicochemical; conditions: for Diffractogram after DVS measurement versus initial: XRPD after humidity cycles
Procedure: Vapour sorption experiments were performed in the instrument SPSx-1 μ (Projekt Messtechnik, Ulm, Germany) at a temperature of 25° C., using the humidity cycles specified below: [table]

[2] = cited from earlier work
[3] = Solubility determination in aqueous solvents at 37° C.; assay type: physicochemical; conditions: for solubility at 60 min / solubility at 15 min: 37 °C, thermodynamic from solid
Procedure: Approximately 200 mg (exactly weighed) test substance was weighed into a glass vial, followed by addition of 2 mL solvent (water, 0.01M HCl, 20 mM NaOAc/HOAc pH 4.5, 50 mM KH2PO4 pH 6.8). A stirring bar was added, the vial was fixed in a block heater at 37° C. and the suspension was stirred with approximately 250 rpm. After 15 min and 1 hour samples were withdrawn, filtered through a 0.2 μm disposable filter, diluted with solvent and quantified by UHPLC/UV.

[4] = Solubility determination in organic solvents at room temperature; assay type: physicochemical; conditions: chloroform, 23 °C, organic solvent or mixture, thermodynamic from solid, 23° C. (room temperature)
Procedure: Solubilities in organic solvents (methanol, acetone, chloroform, DMSO) were determined similarly at room temperature with the difference that the suspensions were not stirred but treated with a vortex mixer for 20 s.

[5] = 25° C., humidity cycles 0-95% RH
[6] = 50 mM KH2PO4 buffer, pH 6.8, aqueous buffer, 50 mM KH2PO4 (pH 6.8)

- Sample weight change after the DVS measurement [1, 5]: −0.5%
SMILES: CC(=O)O.CC(=O)c1c(C)c2cnc(Nc3ccc(N4CCNCC4)cn3)nc2n(C2CCCC2)c1=O [Palbociclib acetic acid adduct Form 1]
- Diffractogram after DVS measurement versus initial [1]: practically identical with the initial one

SMILES: CC(=O)c1c(C)c2cnc(Nc3ccc(N4CCNCC4)cn3)nc2n(C2CCCC2)c1=O [Palbociclib in form of the free base, 6-acetyl-8-cyclopentyl-5-methyl-2-{[5-(1-piperazinyl)-2-pyridinyl]amino}pyrido[2,3-d]pyrimidin-7(8H)-one]
- Solubility under acidic conditions (in words) ([2]; at or below pH 4): good solubility
- Solubility in water (in words) [2]: practically insoluble

- Maximum water uptake [1, 5]: 1.3%
- Sample weight change after the DVS measurement [1, 5]: −0.2%
- solubility at 60 min ([3]; 0.01M HCl, pH 2, simulated gastric fluid): 4300 µg/mL (≈ 9.61 mM)
- solubility at 15 min ([3]; 20 mM NaOAc/HOAc buffer, pH 4.5, aqueous buffer, 20 mM NaOAc/HOAc (pH 4.5)): 16200 µg/mL (≈ 36.2 mM)
- solubility at 15 min [3, 6]: 100 µg/mL (≈ 0.223 mM)
- solubility at 60 min [3, 6]: 100 µg/mL (≈ 0.223 mM)
- Solubility in aqueous solvents compared with Form A (in words) ([3]; aqueous solvents): comparable to that of Form A
- solubility at 20 s [4]: 86.1 mg/mL (≈ 192 mM)
SMILES: CC(=O)c1c(C)c2cnc(Nc3ccc(N4CCNCC4)cn3)nc2n(C2CCCC2)c1=O [Palbociclib in present crystalline Form, 6-acetyl-8-cyclopentyl-5-methyl-2-{[5-(1-piperazinyl)-2-pyridinyl]amino}pyrido[2,3-d]pyrimidin-7(8H)-one]
- Diffractogram after DVS measurement versus initial [1]: practically identical with the initial one

SMILES: CC(=O)c1c(C)c2cnc(Nc3ccc(N4CCNCC4)cn3)nc2n(C2CCCC2)c1=O [dihydrochloride]
- Solubility in water (in words) [2]: good water solubility

SMILES: CC(=O)c1c(C)c2cnc(Nc3ccc(N4CCNCC4)cn3)nc2n(C2CCCC2)c1=O [hydrochloride]
- Solubility in water (in words) [2]: good water solubility
